Laboratory results taken from patent US9085606B2, “Beta amino acid derivatives as integrin antagonists” (Saint Louis University, priority 2012, dated 2015).

What was measured:
[1] = target: T1, Recombinant human integrin α5β1 (Homo sapiens, UniProt P05556+P08648); test: Solid Phase Receptor Assay for α5β1 Function; conditions: binding to fibronectin-coated plate; read-out: α5β1 SPRA IC50
T1 construct: purchased R&D Systems 3230-A5
Protocol: Solid Phase Receptor Assay for α5β1 Function.
Wells were washed 3 times with 150 μL TBS+ and 150 μl of blocking buffer (TBS+ with 1% bovine serum albumin, Sigma A7906) were added. The plate was incubated for 1 hr at 37° C. and then washed 3× with TBS+ buffer. […] Compounds were diluted 1:100 into the integrin solution and then 50 μL added to empty wells of the washed fibronectin-coated plate according to a standard template with each sample repeated in triplicate. After incubation for two hours at room temperature, the plate was washed 3× with 150 μL of TBS+ buffer. To each well, 50 μL of biotinylated anti-α5 antibody (R&D Systems, BAF1864) at 0.5 ug/mL in TBS+/0.1% BSA were added and the plate covered and incubated for 1 hr at room temperature. After washing the plate 3× with 150 μL of TBS+ buffer, 50 μL of streptavidin-conjugated horseradish peroxidase (R&D Systems, DY998) diluted in TBS+ blocking buffer were added to the wells and the plate incubated for 20 min at room temperature. The plate was washed 3× with TBS+ buffer followed by 50 μL of room temperature TMB substrate (Sigma, T444) added to each well and the plate incubated for 20 min at room temperature. The reaction was optionally stopped with 25 μL of Stop Solution (Sigma S5689). Plates were read by colorimetric detection at 650 nm wavelength using a Tecan Safire II plate reader.

[2] = target: T2, Recombinant human integrin αvβ3 (Homo sapiens, UniProt P05106+P06756); test: Solid Phase Receptor Assay for αvβ3 Function; conditions: binding to vitronectin-coated plate; read-out: αvβ3 SPRA IC50
T2 construct: purchased R&D Systems 3050-AV
T2 sequence (P06756 31-992 limits assumed): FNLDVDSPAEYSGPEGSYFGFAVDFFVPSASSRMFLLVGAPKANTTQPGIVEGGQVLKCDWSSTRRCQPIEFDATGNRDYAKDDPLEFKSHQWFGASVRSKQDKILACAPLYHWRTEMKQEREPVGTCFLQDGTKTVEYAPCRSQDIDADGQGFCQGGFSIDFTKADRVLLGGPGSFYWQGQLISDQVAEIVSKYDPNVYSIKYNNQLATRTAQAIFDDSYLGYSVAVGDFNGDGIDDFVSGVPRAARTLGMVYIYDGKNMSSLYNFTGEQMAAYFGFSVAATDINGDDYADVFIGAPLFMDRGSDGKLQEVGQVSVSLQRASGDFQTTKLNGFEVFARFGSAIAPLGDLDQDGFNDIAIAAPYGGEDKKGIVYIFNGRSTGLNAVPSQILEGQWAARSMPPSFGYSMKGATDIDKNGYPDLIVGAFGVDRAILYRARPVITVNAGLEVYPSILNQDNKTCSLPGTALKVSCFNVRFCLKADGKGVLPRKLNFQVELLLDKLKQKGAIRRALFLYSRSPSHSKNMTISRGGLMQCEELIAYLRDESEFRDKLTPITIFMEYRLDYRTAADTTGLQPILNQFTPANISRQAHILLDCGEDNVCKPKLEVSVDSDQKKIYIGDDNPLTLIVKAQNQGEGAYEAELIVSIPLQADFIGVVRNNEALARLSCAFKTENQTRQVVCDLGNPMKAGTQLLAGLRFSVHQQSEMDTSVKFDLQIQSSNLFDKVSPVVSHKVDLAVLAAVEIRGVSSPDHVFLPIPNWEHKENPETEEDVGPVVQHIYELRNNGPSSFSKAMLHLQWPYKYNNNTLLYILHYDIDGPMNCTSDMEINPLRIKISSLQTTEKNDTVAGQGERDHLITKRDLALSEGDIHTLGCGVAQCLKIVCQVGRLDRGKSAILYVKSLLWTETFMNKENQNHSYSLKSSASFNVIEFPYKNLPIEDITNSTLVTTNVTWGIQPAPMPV
T2 sequence (P05106 27-718 limits assumed): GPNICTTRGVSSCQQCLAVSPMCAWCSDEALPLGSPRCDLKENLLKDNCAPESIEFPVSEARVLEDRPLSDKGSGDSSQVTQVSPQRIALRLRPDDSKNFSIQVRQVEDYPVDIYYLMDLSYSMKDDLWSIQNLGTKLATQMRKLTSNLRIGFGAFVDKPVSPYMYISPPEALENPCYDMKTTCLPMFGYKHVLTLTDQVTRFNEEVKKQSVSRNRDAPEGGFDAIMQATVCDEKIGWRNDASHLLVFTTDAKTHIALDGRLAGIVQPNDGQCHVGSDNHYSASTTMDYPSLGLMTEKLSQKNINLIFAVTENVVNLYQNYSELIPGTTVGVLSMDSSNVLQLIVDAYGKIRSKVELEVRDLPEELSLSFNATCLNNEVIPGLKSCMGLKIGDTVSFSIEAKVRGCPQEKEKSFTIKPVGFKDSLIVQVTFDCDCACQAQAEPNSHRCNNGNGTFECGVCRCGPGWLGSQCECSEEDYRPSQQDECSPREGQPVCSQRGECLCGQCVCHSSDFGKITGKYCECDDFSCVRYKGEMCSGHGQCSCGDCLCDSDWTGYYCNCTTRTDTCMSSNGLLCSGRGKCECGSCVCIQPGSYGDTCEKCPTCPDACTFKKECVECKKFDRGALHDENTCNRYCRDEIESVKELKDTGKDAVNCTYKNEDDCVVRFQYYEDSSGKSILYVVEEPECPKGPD
Protocol: Solid Phase Receptor Assay for αvβ3 Function.
(§1) Wells were washed 3 times with 150 μL TBS+ and 150 μL of blocking buffer (TBS+ with 1% bovine serum albumin, Sigma A7906) were added. The plate was incubated for 1 hr at 37° C. and then washed 3× with TBS+ buffer. […] Compounds were diluted 1:100 into the integrin solution and then 50 μL added to empty wells of the washed vitronectin-coated plate according to a standard template with each sample repeated in triplicate. After incubation for two hours at room temperature, the plate was washed 3× with 150 μL of TBS+ buffer. To each well, 50 μL of biotinylated anti-αv antibody (R&D Systems, BAF1219) at 0.5 μg/mL in TBS+/0.1% BSA were added and the plate covered and incubated for 1 hr at room temperature. After washing the plate 3× with 150 μL of TBS+ buffer, 50 μL of streptavidin-conjugated horseradish peroxidase (R&D Systems, DY998) diluted in TBS+ blocking buffer were added to the wells and the plate incubated for 20 min at room temperature. The plate was washed 3× with TBS+ buffer followed by 50 μL of TMB substrate (Sigma, T4444) added to each well and the plate was incubated for 20 min at room temperature. The reaction was optionally stopped with 25 μL of Stop Solution (Sigma, S5689). Plates were read by colorimetric detection at 650 nm wavelength using a Tecan S afire II plate reader.

[3] = target: T3, Recombinant human integrin αvβ5 (Homo sapiens, UniProt P06756+P18084); test: Solid Phase Receptor Assay for αvβ5 Function; conditions: binding to vitronectin-coated plate; read-out: αvβ5 SPRA IC50
T3 construct: purchased R&D Systems 2528-AV
T3 sequence (P06756 31-992 limits assumed): as the sequence (P06756 31-992 limits assumed) above
T3 sequence (P18084 24-719 limits assumed): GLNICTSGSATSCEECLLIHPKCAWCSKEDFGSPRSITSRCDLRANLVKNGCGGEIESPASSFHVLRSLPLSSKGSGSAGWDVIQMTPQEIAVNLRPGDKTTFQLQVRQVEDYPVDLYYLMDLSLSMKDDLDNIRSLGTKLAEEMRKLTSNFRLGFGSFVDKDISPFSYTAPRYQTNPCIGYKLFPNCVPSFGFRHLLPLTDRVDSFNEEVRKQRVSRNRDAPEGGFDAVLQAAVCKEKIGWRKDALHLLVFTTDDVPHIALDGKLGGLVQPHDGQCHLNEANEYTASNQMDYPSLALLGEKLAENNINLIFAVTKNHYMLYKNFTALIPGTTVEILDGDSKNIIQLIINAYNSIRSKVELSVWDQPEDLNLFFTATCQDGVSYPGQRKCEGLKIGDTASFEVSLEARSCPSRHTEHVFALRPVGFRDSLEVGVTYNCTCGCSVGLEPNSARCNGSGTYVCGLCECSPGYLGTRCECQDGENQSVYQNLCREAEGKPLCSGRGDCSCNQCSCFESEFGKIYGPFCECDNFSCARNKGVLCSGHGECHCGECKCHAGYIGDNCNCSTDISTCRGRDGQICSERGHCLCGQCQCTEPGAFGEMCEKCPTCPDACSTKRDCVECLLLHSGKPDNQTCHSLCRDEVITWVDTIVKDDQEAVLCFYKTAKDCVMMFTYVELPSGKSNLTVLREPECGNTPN
Protocol: Solid Phase Receptor Assay for αvβ5 Function.
as §1, with “TBS+/0.1% BSA at 0.5 μg/mL were added” for “TBS+/0.1% BSA were added”, “peroxidase (R&D Systems DY998) diluted” for “peroxidase (R&D Systems, DY998) diluted”, “TMB substrate (Sigma T4444) added” for “TMB substrate (Sigma, T4444) added”, “the plate incubated for” for “the plate was incubated for”, “Stop Solution (Sigma S5689). Plates” for “Stop Solution (Sigma, S5689). Plates”, “a Tecan Safire II plate” for “a Tecan S afire II plate”

[4] = target: T4, Recombinant human integrin αvβ8 (Homo sapiens, UniProt P06756+P26012); test: Solid Phase Receptor Assay for αvβ8 Function; conditions: binding to LAP-coated plate; read-out: αvβ8 SPRA IC50
T4 construct: purchased R&D Systems 4135-AV
T4 sequence (P06756 31-992 limits assumed): as the sequence (P06756 31-992 limits assumed) above
T4 sequence (P26012 43-684 limits assumed): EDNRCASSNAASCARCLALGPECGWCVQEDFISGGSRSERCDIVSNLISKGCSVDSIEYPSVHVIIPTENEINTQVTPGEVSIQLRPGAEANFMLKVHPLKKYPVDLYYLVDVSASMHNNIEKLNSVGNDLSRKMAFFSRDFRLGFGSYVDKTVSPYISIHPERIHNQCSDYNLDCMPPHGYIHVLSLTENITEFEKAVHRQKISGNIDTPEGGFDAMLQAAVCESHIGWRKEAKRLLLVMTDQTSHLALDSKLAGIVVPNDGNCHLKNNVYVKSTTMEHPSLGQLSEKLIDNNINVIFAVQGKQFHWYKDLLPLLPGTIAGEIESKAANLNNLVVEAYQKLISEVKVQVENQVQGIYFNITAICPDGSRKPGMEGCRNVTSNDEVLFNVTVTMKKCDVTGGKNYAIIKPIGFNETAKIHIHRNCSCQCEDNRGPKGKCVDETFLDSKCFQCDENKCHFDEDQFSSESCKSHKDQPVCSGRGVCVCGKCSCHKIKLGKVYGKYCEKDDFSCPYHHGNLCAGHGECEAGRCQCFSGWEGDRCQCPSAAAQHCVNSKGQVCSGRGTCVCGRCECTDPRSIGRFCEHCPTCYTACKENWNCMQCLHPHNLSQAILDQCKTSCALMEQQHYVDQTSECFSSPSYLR
Protocol: Solid Phase Receptor Assay for αvβ8 Function.
Wells were washed 3 times with 150 μL TBS+ and 150 μL of blocking buffer (TBS+ with 1% bovine serum albumin, Sigma A7906) were added. The plate was incubated for 1 hr at 37° C. and then washed 3× with TBS+. […] Compounds were diluted 1:100 into the integrin solution and 50 μL added to empty wells of the washed LAP-coated plate according to a standard template with each sample repeated in triplicate. After incubation for two hours at room temperature, the plate was washed 3× with 150 μL of TBS+. To each well, 50 μL of biotinylated anti-αv antibody (R&D Systems, BAF1219) at 1 μg/mL in TBS+/0.1% BSA were added and the plate was covered and incubated for 1 hr at room temperature. After washing the plate 3× with 150 μL of TBS+ buffer, 50 μL of streptavidin-conjugated horseradish peroxidase (R&D Systems, DY998) diluted in TBS+ blocking buffer were added to the wells and the plate incubated for 20 min at room temperature. The plate was washed 3× with TBS+ followed by 50 μL of TMB substrate (Sigma T4444) added to each well and the plate incubated for 20 min at room temperature. The reaction was optionally stopped with 25 μL of Stop Solution (Sigma S5689). Plates were read by colorimetric detection at 650 nm wavelength using a Tecan Safire II plate reader.

T1 sequence (P08648 42-995 limits assumed): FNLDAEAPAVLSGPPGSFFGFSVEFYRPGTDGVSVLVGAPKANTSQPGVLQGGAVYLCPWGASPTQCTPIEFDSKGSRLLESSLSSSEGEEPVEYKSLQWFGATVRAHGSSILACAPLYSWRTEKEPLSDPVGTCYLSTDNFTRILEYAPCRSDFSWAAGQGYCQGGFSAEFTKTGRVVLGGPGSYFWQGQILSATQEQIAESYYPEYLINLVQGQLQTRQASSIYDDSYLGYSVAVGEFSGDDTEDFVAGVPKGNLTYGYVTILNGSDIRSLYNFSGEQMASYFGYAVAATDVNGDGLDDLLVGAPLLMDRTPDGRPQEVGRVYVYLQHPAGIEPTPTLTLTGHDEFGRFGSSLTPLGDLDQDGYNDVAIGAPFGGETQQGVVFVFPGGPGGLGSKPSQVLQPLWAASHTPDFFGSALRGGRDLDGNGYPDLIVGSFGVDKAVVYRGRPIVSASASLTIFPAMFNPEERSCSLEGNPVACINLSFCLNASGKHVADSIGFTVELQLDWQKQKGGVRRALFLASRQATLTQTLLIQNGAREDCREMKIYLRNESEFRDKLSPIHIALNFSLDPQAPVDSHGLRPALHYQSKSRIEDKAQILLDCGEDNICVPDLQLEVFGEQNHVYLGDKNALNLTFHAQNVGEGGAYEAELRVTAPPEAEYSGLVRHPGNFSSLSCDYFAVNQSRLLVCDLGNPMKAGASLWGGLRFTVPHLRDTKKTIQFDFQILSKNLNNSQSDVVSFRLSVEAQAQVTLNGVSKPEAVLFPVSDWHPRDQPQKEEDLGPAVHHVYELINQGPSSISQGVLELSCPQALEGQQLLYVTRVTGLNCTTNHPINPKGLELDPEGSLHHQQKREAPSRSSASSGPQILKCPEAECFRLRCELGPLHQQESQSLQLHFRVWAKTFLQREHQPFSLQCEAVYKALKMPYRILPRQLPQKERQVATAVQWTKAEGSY
T1 sequence (P05556 21-728 limits assumed): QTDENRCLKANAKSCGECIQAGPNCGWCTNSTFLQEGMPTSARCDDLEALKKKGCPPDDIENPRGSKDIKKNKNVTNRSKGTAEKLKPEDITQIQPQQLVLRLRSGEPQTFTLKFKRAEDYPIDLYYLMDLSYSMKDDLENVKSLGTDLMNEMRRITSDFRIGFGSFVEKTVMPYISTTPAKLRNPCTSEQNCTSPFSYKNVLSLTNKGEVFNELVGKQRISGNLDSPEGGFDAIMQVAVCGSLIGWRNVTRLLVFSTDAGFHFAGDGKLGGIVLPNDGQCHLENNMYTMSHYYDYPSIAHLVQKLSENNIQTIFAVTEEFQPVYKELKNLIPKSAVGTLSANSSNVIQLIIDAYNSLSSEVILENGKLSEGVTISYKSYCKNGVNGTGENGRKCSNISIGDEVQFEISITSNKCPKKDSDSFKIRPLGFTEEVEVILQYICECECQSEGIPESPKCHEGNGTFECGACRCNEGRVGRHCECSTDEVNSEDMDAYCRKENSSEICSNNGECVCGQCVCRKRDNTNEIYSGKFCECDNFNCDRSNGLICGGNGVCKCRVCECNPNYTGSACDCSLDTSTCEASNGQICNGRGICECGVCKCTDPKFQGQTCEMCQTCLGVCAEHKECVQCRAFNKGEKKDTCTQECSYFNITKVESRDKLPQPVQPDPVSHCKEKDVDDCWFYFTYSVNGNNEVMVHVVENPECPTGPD

Row | Structure (SMILES) | IC50 [1] [nM] | IC50 [2] [nM] | IC50 [3] [nM] | IC50 [4] [nM]
1 | CC(C)(C)c1cc(-c2cncnc2)cc([C@H](CC(=O)O)NC(=O)CNC(=O)c2cc(O)cc(NC3=NCC(O)CN3)c2)c1 (stereo partly drawn) [Example 19, (3S)-3-(3-(tert-butyl)-5-(pyrimidin-5-yl)phenyl)-3-(2-(3-hydroxy-5-((5-hydroxy-1,4,5,6-tetrahydropyrimidin-2-yl)amino)benzamido)acetamido)propanoic acid] | 0.4 | 8.8 | 21 | 0.4
2 | CC(C)(CO)c1cc(Cl)cc([C@H](CC(=O)O)NC(=O)CNC(=O)c2cc(O)cc(NC3=NCC(O)CN3)c2)c1 (stereo partly drawn) [Example 15, (3S)-3-(3-chloro-5-(1-hydroxy-2-methylpropan-2-yl)phenyl)-3-(2-(3-hydroxy-5-((5-hydroxy-1,4,5,6-tetrahydropyrimidin-2-yl)amino)benzamido)acetamido)propanoic acid] | 0.4 | 3.3 | 0.4 | 0.3
3 | CC(C)(C)c1cc(Br)c(O)c([C@H](CC(=O)O)NC(=O)CNC(=O)c2cc(O)cc(NC3=NCC(O)CN3)c2)c1 (stereo partly drawn) [Example 1, (3S)-3-(3-bromo-5-(tert-butyl)-2-hydroxyphenyl)-3-(2-(3-hydroxy-5-((5-hydroxy-1,4,5,6-tetrahydropyrimidin-2-yl)amino)benzamido)acetamido)propanoic acid] | 0.5 | 5.1 | 47 | 0.1
4 | CC(C)(C)c1cc(C#N)cc([C@H](CC(=O)O)NC(=O)CNC(=O)c2cc(O)cc(NC3=NCC(O)CN3)c2)c1 (stereo partly drawn) [Example 12, (3S)-3-(3-(tert-butyl)-5-cyanophenyl)-3-(2-(3-hydroxy-5-((5-hydroxy-1,4,5,6-tetrahydro-pyrimidin-2-yl)amino)benzamido)acetamido)propanoic acid] | 0.3 | 2.8 | 0.2 | 0.2
5 | O=C(O)C[C@H](NC(=O)CNC(=O)c1cc(O)cc(NC2=NCC(O)CN2)c1)c1cc(Cl)cc(C2(CF)CCOCC2)c1 (stereo partly drawn) [Example 20, (3S)-3-(3-chloro-5-(4-(fluoromethyl)tetrahydro-2H-pyran-4-yl)phenyl)-3-(2-(3-hydroxy-5-((5-hydroxy-1,4,5,6-tetrahydropyrimidin-2-yl)amino)benzamido)acetamido)propanoic acid] | 2.4 | 3.7 | 0.5 | 0.5
6 | COCC1(c2cc(Cl)cc([C@H](CC(=O)O)NC(=O)CNC(=O)c3cc(O)cc(NC4=NCC(O)CN4)c3)c2)CCOCC1 (stereo partly drawn) [Example 16, (3S)-3-(3-chloro-5-(4-(Methoxymethyl)tetrahydro-2H-pyran-4-yl)phenyl)-3-(2-(3-hydroxy-5-((5-hydroxy-1,4,5,6-tetrahydropyrimidin-2-yl)amino)benzamido)acetamido)propanoic acid] | 0.5 | 1.7 | 0.6 | 0.4
7 | CC(C)(C)c1cc(Br)cc([C@H](CC(=O)O)NC(=O)CNC(=O)c2cncc(NC3=NCC(O)CN3)c2)c1 (stereo partly drawn) [Example 8, (3S)-3-(3-bromo-5-(tert-butyl)phenyl)-3-(2-(5-((5-hydroxy-1,4,5,6-tetrahydropyrimidin-2-yl)amino)nicotinamido)acetamido)propanoic acid] | 0.4 | 1.5 | 0.5 | 0.1
8 | CC(C)(C)c1cc(-c2cccnc2)cc([C@H](CC(=O)O)NC(=O)CNC(=O)c2cc(O)cc(NC3=NCC(O)CN3)c2)c1 (stereo partly drawn) [Example 18, (3S)-3-(3-(tert-butyl)-5-(pyridin-3-yl)phenyl)-3-(2-(3-hydroxy-5-((5-hydroxy-1,4,5,6-tetrahydropyrimidin-2-yl)amino)benzamido)acetamido)propanoic acid] | 0.4 | 14.5 | 21 | 0.3
9 | CC(C)(O)c1cc(Br)cc([C@H](CC(=O)O)NC(=O)CNC(=O)c2cc(O)cc(NC3=NCC(O)CN3)c2)c1 (stereo partly drawn) [Example 3, (3S)-3-(3-bromo-5-(2-hydroxypropan-2-yl)phenyl)-3-(2-(3-hydroxy-5-((5-hydroxy-1,4,5,6-tetrahydropyrimidin-2-yl)amino)benzamido)acetamido)propanoic acid] | 0.3 | 2 | 0.7 | 0.4
10 | CC(C)(C)c1cc(Br)cc([C@H](CC(=O)O)NC(=O)CNC(=O)c2cncc(NC(=N)N)c2)c1 [Example 6, (S)-3-(3-bromo-5-(tert-butyl)phenyl)-3-(2-(5-guanidinonicotinamido)acetamido) propanoic acid] | 1 | 3.5 | 2.2 | 0.3
11 | CC(C)(C)c1cc(Br)cc([C@H](CC(=O)O)NC(=O)CNC(=O)c2cc(O)cc(NC3=NCC(O)CN3)c2)c1O (stereo partly drawn) [Example 2, (3S)-3-(5-bromo-3-(tert-butyl)-2-hydroxyphenyl)-3-(2-(3-hydroxy-5-((5-hydroxy-1,4,5,6-tetrahydropyrimidin-2-yl)amino)benzamido)acetamido)propanoic acid] | 0.5 | 1.8 | 1 | 0.1
12 | CC(C)(C)c1cc(Br)cc([C@H](CC(=O)O)NC(=O)CNC(=O)c2cc(O)cc(NC3=NCCN3)c2)c1 [Example 9, (S)-3-(3-bromo-5-(tert-butyl)phenyl)-3-(2-(3-((4,5-dihydro-1H-imidazol-2-yl)amino)-5-hydroxybenzamido)acetamido)propanoic acid] | 0.5 | 2.9 | 1.2 | 0.1
13 | CC(C)(O)c1cc([C@H](CC(=O)O)NC(=O)CNC(=O)c2cc(O)cc(NC3=NCC(O)CN3)c2)cc(C(F)(F)F)c1 (stereo partly drawn) [Example 13, (3S)-3-(2-(3-hydroxy-5-((5-hydroxy-1,4,5,6-tetrahydropyrimidin-2-yl)amino)benzamido)acetamido)-3-(3-(2-hydroxypropan-2-yl)-5-(trifluoromethyl)phenyl)propanoic acid] | 0.9 | 1.8 | 0.3 | 0.6
